Assays:
[1] = tested on: MCF10A PANK4 KO+PANK4 WT cells; assay: Sulforhodamine B cell growth assay, MCF10A PANK4 KO+PANK4 WT; format: cell-based, human
U251 = assay: NCI-60 growth inhibition (sulforhodamine B); format: cell-based, human; conditions: U251 (CNS Cancer), negative log of Molar conc., LCONC -8
HCC-2998 = assay: NCI-60 growth inhibition (sulforhodamine B); format: cell-based, human; conditions: HCC-2998 (Colon Cancer), negative log of Molar conc., LCONC -8
786-0 = tested on: 786-0; parameters: method as in ref 29 (a number printed in a supplementary file, which may have a reference list of its own: not looked up in the article's list); conditions: Renal 786-0; highest log conc -4.0; NCI-60 screen data; cited from earlier work
NCI/ADR-RES = tested on: NCI/ADR-RES; parameters: method as in ref 29 (a number printed in a supplementary file, which may have a reference list of its own: not looked up in the article's list); conditions: Ovarian NCI/ADR-RES; highest log conc -4.0; NCI-60 screen data; cited from earlier work
SF-295 = tested on: SF-295; parameters: method as in ref 29 (a number printed in a supplementary file, which may have a reference list of its own: not looked up in the article's list); conditions: CNS SF-295; highest log conc -4.0; NCI-60 screen data; cited from earlier work
HS578T = tested on: HS578T; parameters: method as in ref 29 (a number printed in a supplementary file, which may have a reference list of its own: not looked up in the article's list); conditions: Breast HS578T; highest log conc -4.0; NCI-60 screen data; cited from earlier work
SNB-75 = tested on: SNB-75; parameters: method as in ref 29 (a number printed in a supplementary file, which may have a reference list of its own: not looked up in the article's list); conditions: CNS SNB-75; highest log conc -4.0; NCI-60 screen data; cited from earlier work
SK-MEL-2 = tested on: SK-MEL-2; parameters: method as in ref 29 (a number printed in a supplementary file, which may have a reference list of its own: not looked up in the article's list); conditions: Melanoma SK-MEL-2; highest log conc -4.0; NCI-60 screen data; cited from earlier work
TK-10 = tested on: TK-10; parameters: method as in ref 29 (a number printed in a supplementary file, which may have a reference list of its own: not looked up in the article's list); conditions: Renal TK-10; highest log conc -4.0; NCI-60 screen data; cited from earlier work
CCRF-CEM = tested on: CCRF-CEM; parameters: method as in ref 29 (a number printed in a supplementary file, which may have a reference list of its own: not looked up in the article's list); conditions: Leukemia CCRF-CEM; highest log conc -4.0; NCI-60 screen data; cited from earlier work
UO-31 = tested on: UO-31; parameters: method as in ref 29 (a number printed in a supplementary file, which may have a reference list of its own: not looked up in the article's list); conditions: Renal UO-31; highest log conc -4.0; NCI-60 screen data; cited from earlier work
NCI-H522 = tested on: NCI-H522; parameters: method as in ref 29 (a number printed in a supplementary file, which may have a reference list of its own: not looked up in the article's list); conditions: Non-SmallCellLung NCI-H522; highest log conc -4.0; NCI-60 screen data; cited from earlier work
IGROV1 = tested on: IGROV1; parameters: method as in ref 29 (a number printed in a supplementary file, which may have a reference list of its own: not looked up in the article's list); conditions: Ovarian IGROV1; highest log conc -4.0; NCI-60 screen data; cited from earlier work
SW-620 = tested on: SW-620; parameters: method as in ref 29 (a number printed in a supplementary file, which may have a reference list of its own: not looked up in the article's list); conditions: Colon SW-620; highest log conc -4.0; NCI-60 screen data; cited from earlier work
OVCAR-8 = tested on: OVCAR-8; parameters: method as in ref 29 (a number printed in a supplementary file, which may have a reference list of its own: not looked up in the article's list); conditions: Ovarian OVCAR-8; highest log conc -4.0; NCI-60 screen data; cited from earlier work
EKVX = tested on: EKVX; parameters: method as in ref 29 (a number printed in a supplementary file, which may have a reference list of its own: not looked up in the article's list); conditions: Non-SmallCellLung EKVX; highest log conc -4.0; NCI-60 screen data; cited from earlier work
A549/ATCC = tested on: A549/ATCC; parameters: method as in ref 29 (a number printed in a supplementary file, which may have a reference list of its own: not looked up in the article's list); conditions: Non-SmallCellLung A549/ATCC; highest log conc -4.0; NCI-60 screen data; cited from earlier work
DU-145 = tested on: DU-145; parameters: method as in ref 29 (a number printed in a supplementary file, which may have a reference list of its own: not looked up in the article's list); conditions: Prostate DU-145; highest log conc -4.0; NCI-60 screen data; cited from earlier work
T-47D = tested on: T-47D; parameters: method as in ref 29 (a number printed in a supplementary file, which may have a reference list of its own: not looked up in the article's list); conditions: Breast T-47D; highest log conc -4.0; NCI-60 screen data; cited from earlier work
NCI-H23 = tested on: NCI-H23; parameters: method as in ref 29 (a number printed in a supplementary file, which may have a reference list of its own: not looked up in the article's list); conditions: Non-SmallCellLung NCI-H23; highest log conc -4.0; NCI-60 screen data; cited from earlier work

Compound | GI50 AVGDATA (786-0) | GI50 AVGDATA (NCI/ADR-RES) | GI50 AVGDATA (SF-295) | GI50 AVGDATA (HS578T) | GI50 AVGDATA (SNB-75) | GI50 AVGDATA (SK-MEL-2) | GI50 AVGDATA (TK-10) | GI50 AVGDATA (CCRF-CEM) | GI50 AVGDATA (UO-31) | GI50 AVGDATA (NCI-H522) | GI50 AVGDATA (IGROV1) | GI50 AVGDATA (SW-620) | GI50 AVGDATA (OVCAR-8) | GI50 AVGDATA (EKVX) | GI50 AVGDATA (A549/ATCC) | GI50 AVGDATA (DU-145) | GI50 AVGDATA (T-47D) | GI50 AVGDATA (NCI-H23) | other results
C[C@H](CN[C@@H](C(=O)Nc1ccc(-c2cnn(C)c2)cn1)c1ccccc1)c1ccc(C#N)cc1 [CPI-1612] | – | – | – | – | – | – | – | – | – | – | – | – | – | – | – | – | – | – | IC50 ([1]; Homo sapiens, MCF-10A KO+PANK4 WT, 72 h): 0.0089 µM; growth inhibition activity at 1 μM ([1]; PANK4 KO+WT cells, 1 μM): remains active; GI50 (U251; Homo sapiens, U-251, read-out: GI50 NLOGVALUE (converted)): 2.34 µM; IC50 (U251; Homo sapiens, U-251, read-out: IC50 NLOGVALUE (converted)): 28.8 µM; CC50 (U251; Homo sapiens, U-251, read-out: LC50 NLOGVALUE): > 100 µM; TGI NLOGVALUE (U251): 4; TGI NLOGVALUE (HCC-2998): 4; GI50 (HCC-2998; Homo sapiens, read-out: GI50 NLOGVALUE (converted)): 0.11 µM; IC50 (HCC-2998; Homo sapiens, read-out: IC50 NLOGVALUE (converted)): 33.9 µM; CC50 (HCC-2998; Homo sapiens, read-out: LC50 NLOGVALUE): > 100 µM
COC(=O)N1c2ccc3c(nc(Cc4ccccc4)n3[C@H]3CCC[C@H](C(=O)O)C3)c2CC[C@@H]1C [FT-6876] | -5.25 | -4.19 | -4.93 | -5.49 | -6.37 | -4.46 | -5.24 | -5.18 | -5.54 | -4.95 | -4.68 | -4.33 | -4.55 | -4.75 | -4.56 | -4.03 | -5.5 | – | –
Cc1sc2c(c1C)C(c1ccc(Cl)cc1)=N[C@@H](CC(=O)OC(C)(C)C)c1nnc(C)n1-2 [JQ-1] | -6.08 | -6.4 | -6.74 | -7.25 | -7.6 | -5.27 | -7.23 | -6.11 | -7.52 | -7.25 | -6.19 | -5.39 | -6.21 | -5.93 | -6.5 | -5.07 | -6.67 | -6.55 | –
CO[C@H]1CC[C@H](n2c([C@@H]3CCCC(=O)N3c3ccc(F)c(F)c3)nc3cc(-c4c(C)noc4C)ccc32)CC1 [inobrodib] | – | -4.87 | -5.17 | -5.68 | -7.96 | -4.94 | -5.61 | -5.33 | -5.79 | -5.53 | -5.34 | -4.72 | -4.99 | -5.4 | -4.93 | -4.77 | -5.69 | -4.88 | –

Reference: article doi:10.1101/2023.05.15.540887, “Comparative analysis of drug-like EP300/CREBBP acetyltransferase inhibitors” (bioRxiv, 2023)
